What was measured:
[1] = tested on: Mast/stem cell growth factor receptor Kit (Homo sapiens), P10721 [V559D,V654A]; conditions: Compound concentration 1000.0 nM
[2] = target: Platelet-derived growth factor receptor beta (Homo sapiens) (UniProt P09619); conditions: Compound concentration 1000.0 nM
[3] = target: Wee1-like protein kinase 2 (Homo sapiens) (UniProt P0C1S8); conditions: Compound concentration 1000.0 nM
[4] = target: Tyrosine-protein kinase Yes (Homo sapiens) (UniProt P07947); conditions: Compound concentration 1000.0 nM
[5] = target: Activin receptor type-2A (Homo sapiens) (UniProt P27037); conditions: Compound concentration 1000.0 nM
[6] = target: Muscarinic acetylcholine receptor M1 (Homo sapiens) (UniProt P11229); conditions: Compound concentration 10.0 uM
[7] = target: D(3) dopamine receptor (Homo sapiens) (UniProt P35462); conditions: Compound concentration 10.0 uM
[8] = target: Myosin-IIIa (Homo sapiens) (UniProt Q8NEV4); conditions: Compound concentration 1000.0 nM
[9] = target: Cyclin-dependent kinase 4 (Homo sapiens) (UniProt P11802); conditions: Compound concentration 1000.0 nM
[10] = target: Kappa-type opioid receptor (Homo sapiens) (UniProt P41145); conditions: Compound concentration 10.0 uM
[11] = target: Serine/threonine-protein kinase tousled-like 2 (Homo sapiens) (UniProt Q86UE8); conditions: Compound concentration 1000.0 nM
[12] = target: Citron Rho-interacting kinase (Homo sapiens) (UniProt O14578); conditions: Compound concentration 1000.0 nM
[13] = target: Serine/threonine-protein kinase ULK2 (Homo sapiens) (UniProt Q8IYT8); conditions: Compound concentration 1000.0 nM
[14] = target: D(1B) dopamine receptor (Homo sapiens) (UniProt P21918); conditions: Compound concentration 10.0 uM
[15] = target: Insulin receptor (Homo sapiens) (UniProt P06213); conditions: Compound concentration 1000.0 nM
[16] = target: Ephrin type-A receptor 2 (Homo sapiens) (UniProt P29317); conditions: Compound concentration 1000.0 nM
[17] = tested on: Phosphatidylinositol 4,5-bisphosphate 3-kinase catalytic subunit alpha isoform (Homo sapiens), P42336 [Q546K]; conditions: Compound concentration 1000.0 nM
[18] = tested on: Epidermal growth factor receptor (Homo sapiens), P00533 [T790M]; conditions: Compound concentration 1000.0 nM
[19] = target: Casein kinase I isoform delta (Homo sapiens) (UniProt P48730); conditions: Compound concentration 1000.0 nM
[20] = target: Muscarinic acetylcholine receptor M4 (Homo sapiens) (UniProt P08173); conditions: Compound concentration 10.0 uM
[21] = target: Protein kinase C epsilon type (Homo sapiens) (UniProt Q02156); conditions: Compound concentration 1000.0 nM
[22] = target: Beta-adrenergic receptor kinase 1 (Homo sapiens) (UniProt P25098); conditions: Compound concentration 1000.0 nM
[23] = target: Serine/threonine-protein kinase Nek2 (Homo sapiens) (UniProt P51955); conditions: Compound concentration 1000.0 nM
[24] = target: Tyrosine-protein kinase Blk (Homo sapiens) (UniProt P51451); conditions: Compound concentration 1000.0 nM
[25] = target: Serine/threonine-protein kinase WNK3 (Homo sapiens) (UniProt Q9BYP7); conditions: Compound concentration 1000.0 nM
[26] = target: Tyrosine-protein kinase JAK2 (Homo sapiens) (UniProt O60674); conditions: Compound concentration 1000.0 nM
[27] = target: TGF-beta receptor type-1 (Homo sapiens) (UniProt P36897); conditions: Compound concentration 1000.0 nM
[28] = target: Phosphatidylinositol 4-kinase beta (Homo sapiens) (UniProt Q9UBF8); conditions: Compound concentration 1000.0 nM
[29] = target: Microtubule-associated serine/threonine-protein kinase 1 (Homo sapiens) (UniProt Q9Y2H9); conditions: Compound concentration 1000.0 nM
[30] = tested on: Tyrosine-protein kinase ABL1 (Homo sapiens), P00519 [H396P]; conditions: Compound concentration 1000.0 nM
[31] = target: NUAK family SNF1-like kinase 1 (Homo sapiens) (UniProt O60285); conditions: Compound concentration 1000.0 nM
[32] = target: Cyclin-dependent kinase-like 1 (Homo sapiens) (UniProt Q00532); conditions: Compound concentration 1000.0 nM
[33] = target: Cyclin-dependent kinase-like 5 (Homo sapiens) (UniProt O76039); conditions: Compound concentration 1000.0 nM
[34] = target: Dual specificity mitogen-activated protein kinase kinase 2 (Homo sapiens) (UniProt P36507); conditions: Compound concentration 1000.0 nM
[35] = tested on: Phosphatidylinositol 4,5-bisphosphate 3-kinase catalytic subunit alpha isoform (Homo sapiens), P42336 [H1047Y]; conditions: Compound concentration 1000.0 nM
[36] = target: Tyrosine-protein kinase Fgr (Homo sapiens) (UniProt P09769); conditions: Compound concentration 1000.0 nM
[37] = target: Uncharacterized serine/threonine-protein kinase SBK3 (Homo sapiens) (UniProt P0C264); conditions: Compound concentration 1000.0 nM
[38] = target: Serine/threonine-protein kinase PLK1 (Homo sapiens) (UniProt P53350); conditions: Compound concentration 1000.0 nM
[39] = target: Serine/threonine-protein kinase PAK 3 (Homo sapiens) (UniProt O75914); conditions: Compound concentration 1000.0 nM
[40] = target: Alpha-1D adrenergic receptor (Homo sapiens) (UniProt P25100); conditions: Compound concentration 10.0 uM
[41] = target: Phosphatidylinositol 4,5-bisphosphate 3-kinase catalytic subunit delta isoform (Homo sapiens) (UniProt O00329); conditions: Compound concentration 1000.0 nM
[42] = target: Fibroblast growth factor receptor 3 (Homo sapiens) (UniProt P22607); conditions: Compound concentration 1000.0 nM
[43] = tested on: Hepatocyte growth factor receptor (Homo sapiens), P08581 [Y1235D]; conditions: Compound concentration 1000.0 nM
[44] = target: Cyclin-dependent kinase 9 (Homo sapiens) (UniProt P50750); conditions: Compound concentration 1000.0 nM
[45] = target: Hormonally up-regulated neu tumor-associated kinase (Homo sapiens) (UniProt P57058); conditions: Compound concentration 1000.0 nM
[46] = target: Ribosomal protein S6 kinase alpha-1 (Homo sapiens) (UniProt Q15418); conditions: Compound concentration 1000.0 nM

Chain of Wee1-like protein kinase 2 (Homo sapiens) (P0C1S8 whole entry, looked up): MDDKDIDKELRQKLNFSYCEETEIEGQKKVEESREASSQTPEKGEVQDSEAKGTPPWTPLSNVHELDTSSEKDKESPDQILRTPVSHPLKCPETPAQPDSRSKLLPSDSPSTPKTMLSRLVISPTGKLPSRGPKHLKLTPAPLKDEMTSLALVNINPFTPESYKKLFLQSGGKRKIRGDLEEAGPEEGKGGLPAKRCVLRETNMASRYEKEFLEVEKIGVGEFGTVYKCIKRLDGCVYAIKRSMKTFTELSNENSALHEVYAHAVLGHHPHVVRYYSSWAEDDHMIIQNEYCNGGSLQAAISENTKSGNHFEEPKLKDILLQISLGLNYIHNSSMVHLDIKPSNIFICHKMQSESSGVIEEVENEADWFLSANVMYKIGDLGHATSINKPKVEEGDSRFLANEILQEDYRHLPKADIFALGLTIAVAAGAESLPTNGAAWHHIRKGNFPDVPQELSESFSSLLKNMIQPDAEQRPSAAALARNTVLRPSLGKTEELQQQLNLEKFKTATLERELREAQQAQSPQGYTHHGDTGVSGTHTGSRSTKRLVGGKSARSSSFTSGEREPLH
Chain of Serine/threonine-protein kinase PAK 3 (Homo sapiens) (O75914 whole entry, looked up): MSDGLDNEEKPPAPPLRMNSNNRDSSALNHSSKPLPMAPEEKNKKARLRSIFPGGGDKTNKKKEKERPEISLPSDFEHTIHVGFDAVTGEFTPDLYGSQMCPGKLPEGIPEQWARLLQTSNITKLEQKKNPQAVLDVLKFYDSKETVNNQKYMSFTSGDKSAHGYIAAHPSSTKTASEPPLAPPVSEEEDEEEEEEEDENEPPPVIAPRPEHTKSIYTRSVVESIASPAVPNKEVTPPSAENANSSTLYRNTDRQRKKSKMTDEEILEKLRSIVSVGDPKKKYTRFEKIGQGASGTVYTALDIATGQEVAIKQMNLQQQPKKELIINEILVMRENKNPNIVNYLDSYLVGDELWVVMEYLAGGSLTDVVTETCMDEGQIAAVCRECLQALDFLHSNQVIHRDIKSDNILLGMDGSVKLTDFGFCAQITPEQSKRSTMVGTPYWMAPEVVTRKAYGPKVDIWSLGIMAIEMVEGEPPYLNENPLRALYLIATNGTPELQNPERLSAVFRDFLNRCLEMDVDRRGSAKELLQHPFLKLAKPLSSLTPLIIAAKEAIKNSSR
Chain of NUAK family SNF1-like kinase 1 (Homo sapiens) (O60285 whole entry): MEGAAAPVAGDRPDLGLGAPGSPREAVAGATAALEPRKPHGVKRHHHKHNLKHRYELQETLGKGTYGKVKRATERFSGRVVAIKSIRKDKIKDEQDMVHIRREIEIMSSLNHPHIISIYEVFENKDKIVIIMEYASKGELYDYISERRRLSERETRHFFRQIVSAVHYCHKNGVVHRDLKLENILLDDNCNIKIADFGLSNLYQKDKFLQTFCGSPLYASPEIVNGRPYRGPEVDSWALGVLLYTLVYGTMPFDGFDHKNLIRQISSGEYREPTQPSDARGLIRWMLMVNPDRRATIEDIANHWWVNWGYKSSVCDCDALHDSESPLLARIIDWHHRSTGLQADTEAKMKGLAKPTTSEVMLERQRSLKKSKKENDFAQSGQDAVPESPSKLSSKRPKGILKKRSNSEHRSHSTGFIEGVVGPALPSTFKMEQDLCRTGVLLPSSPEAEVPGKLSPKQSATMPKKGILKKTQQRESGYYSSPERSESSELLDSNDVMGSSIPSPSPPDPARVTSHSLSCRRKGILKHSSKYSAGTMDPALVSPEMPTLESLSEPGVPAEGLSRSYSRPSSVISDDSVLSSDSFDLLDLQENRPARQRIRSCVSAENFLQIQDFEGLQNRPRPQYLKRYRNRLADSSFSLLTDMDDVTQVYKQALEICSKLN
Chain of Platelet-derived growth factor receptor beta (Homo sapiens) (P09619 whole entry): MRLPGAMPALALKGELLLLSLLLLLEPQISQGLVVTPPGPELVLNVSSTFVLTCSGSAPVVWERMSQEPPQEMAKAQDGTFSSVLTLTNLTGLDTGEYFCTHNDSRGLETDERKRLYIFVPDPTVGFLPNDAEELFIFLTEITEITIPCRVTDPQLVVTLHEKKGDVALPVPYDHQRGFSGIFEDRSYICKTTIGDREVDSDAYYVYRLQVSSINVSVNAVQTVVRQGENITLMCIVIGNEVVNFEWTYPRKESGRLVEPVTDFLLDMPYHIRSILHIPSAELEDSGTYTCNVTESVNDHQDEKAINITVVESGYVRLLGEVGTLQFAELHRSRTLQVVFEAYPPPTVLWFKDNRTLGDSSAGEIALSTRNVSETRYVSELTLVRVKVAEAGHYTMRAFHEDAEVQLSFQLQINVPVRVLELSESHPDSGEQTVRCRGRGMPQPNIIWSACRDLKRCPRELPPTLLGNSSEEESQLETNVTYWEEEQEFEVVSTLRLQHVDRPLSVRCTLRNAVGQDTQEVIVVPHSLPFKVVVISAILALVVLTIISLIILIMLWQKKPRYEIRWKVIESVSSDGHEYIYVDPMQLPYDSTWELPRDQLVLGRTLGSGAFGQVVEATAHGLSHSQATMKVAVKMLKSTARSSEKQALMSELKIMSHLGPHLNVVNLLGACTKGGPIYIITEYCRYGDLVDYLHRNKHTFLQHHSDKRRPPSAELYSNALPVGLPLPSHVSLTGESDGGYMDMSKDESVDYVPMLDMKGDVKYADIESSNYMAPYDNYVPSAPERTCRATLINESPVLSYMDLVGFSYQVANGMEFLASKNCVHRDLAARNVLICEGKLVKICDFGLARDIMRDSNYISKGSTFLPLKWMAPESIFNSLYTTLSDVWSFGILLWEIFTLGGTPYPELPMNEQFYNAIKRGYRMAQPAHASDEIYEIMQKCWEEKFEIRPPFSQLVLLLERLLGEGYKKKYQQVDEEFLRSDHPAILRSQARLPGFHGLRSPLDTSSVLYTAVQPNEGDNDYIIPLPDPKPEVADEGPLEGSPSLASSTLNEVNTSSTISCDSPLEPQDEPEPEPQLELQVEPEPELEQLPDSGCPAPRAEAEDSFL
Chain of Ephrin type-A receptor 2 (Homo sapiens) (P29317 whole entry, canonical isoform): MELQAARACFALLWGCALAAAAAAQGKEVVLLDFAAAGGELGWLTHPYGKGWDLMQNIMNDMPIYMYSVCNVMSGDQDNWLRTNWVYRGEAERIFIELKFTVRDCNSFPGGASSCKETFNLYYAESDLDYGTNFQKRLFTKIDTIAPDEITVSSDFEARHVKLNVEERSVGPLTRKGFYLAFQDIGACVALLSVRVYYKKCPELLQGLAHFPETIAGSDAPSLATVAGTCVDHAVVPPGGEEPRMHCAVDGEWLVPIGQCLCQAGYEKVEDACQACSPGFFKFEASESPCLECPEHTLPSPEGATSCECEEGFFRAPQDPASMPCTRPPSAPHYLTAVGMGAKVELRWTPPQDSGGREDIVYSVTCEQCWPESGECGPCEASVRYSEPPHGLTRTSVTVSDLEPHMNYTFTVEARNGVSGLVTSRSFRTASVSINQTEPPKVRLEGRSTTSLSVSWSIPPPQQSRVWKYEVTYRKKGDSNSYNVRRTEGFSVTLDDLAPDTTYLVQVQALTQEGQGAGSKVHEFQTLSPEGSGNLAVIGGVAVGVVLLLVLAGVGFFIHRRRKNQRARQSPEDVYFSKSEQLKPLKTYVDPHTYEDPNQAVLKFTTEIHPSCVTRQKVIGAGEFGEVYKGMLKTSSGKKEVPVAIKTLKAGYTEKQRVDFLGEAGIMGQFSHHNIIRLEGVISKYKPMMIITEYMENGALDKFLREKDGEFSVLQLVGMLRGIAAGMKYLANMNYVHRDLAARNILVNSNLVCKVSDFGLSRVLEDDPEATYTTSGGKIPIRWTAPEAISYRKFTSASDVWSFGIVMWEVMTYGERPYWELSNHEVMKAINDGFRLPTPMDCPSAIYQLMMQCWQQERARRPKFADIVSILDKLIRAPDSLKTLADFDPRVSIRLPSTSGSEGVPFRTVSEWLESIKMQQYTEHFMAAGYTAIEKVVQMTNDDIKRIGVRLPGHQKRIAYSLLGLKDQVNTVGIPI
Chain of Phosphatidylinositol 4,5-bisphosphate 3-kinase catalytic subunit alpha isoform (Homo sapiens), P42336 [Q546K] (P42336 whole entry Q546K, canonical isoform): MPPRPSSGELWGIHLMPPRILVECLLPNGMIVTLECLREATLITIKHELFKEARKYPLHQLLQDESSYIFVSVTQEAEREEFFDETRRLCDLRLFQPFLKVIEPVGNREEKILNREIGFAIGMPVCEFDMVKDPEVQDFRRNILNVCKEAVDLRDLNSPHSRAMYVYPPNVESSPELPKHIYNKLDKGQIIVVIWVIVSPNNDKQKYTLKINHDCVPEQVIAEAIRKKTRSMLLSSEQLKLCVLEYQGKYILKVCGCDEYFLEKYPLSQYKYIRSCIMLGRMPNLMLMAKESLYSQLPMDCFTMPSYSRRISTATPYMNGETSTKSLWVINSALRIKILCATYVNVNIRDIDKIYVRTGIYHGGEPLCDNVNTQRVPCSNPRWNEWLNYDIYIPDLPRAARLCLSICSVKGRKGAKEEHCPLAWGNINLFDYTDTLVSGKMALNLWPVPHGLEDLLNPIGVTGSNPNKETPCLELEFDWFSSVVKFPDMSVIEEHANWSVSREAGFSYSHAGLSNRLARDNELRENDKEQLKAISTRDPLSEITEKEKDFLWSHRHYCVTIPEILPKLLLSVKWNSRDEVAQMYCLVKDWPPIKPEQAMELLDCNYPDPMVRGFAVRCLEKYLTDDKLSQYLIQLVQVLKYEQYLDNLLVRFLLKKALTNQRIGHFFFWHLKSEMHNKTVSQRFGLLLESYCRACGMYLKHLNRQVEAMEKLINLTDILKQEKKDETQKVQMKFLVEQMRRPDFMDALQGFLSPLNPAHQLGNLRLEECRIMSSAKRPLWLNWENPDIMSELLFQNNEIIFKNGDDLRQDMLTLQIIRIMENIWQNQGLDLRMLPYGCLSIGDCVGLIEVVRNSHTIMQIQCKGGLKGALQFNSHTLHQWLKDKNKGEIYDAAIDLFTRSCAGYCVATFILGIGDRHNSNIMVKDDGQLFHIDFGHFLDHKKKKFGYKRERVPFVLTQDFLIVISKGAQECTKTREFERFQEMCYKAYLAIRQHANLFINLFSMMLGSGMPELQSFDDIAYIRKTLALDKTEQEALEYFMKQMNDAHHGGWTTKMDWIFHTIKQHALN
Chain of Phosphatidylinositol 4,5-bisphosphate 3-kinase catalytic subunit alpha isoform (Homo sapiens), P42336 [H1047Y] (P42336 whole entry H1047Y, canonical isoform): as the sequence (P42336 whole entry Q546K, canonical isoform) above, with K546Q, H1047Y counted along it

Cc1nc(Cc2cccc(C(F)(F)F)c2)sc1-c1ccc(C(N)=O)nc1 [TP-024n]
inactive: residual activity [1] 83% | residual activity [2] 92% | residual activity [3] 100% | residual activity [4] 100% | residual activity [5] 85% | inhibition [6] 10% | inhibition [7] 6.21% | residual activity [8] 98% | residual activity [9] 99% | inhibition [10] 3.47% | residual activity [11] 82% | residual activity [12] 65% | residual activity [13] 100% | inhibition [14] 13.8% | residual activity [15] 95% | residual activity [16] 68% | residual activity [17] 86% | residual activity [18] 98% | residual activity [19] 75% | inhibition [20] 2.94% | residual activity [21] 100% | residual activity [22] 100% | residual activity [23] 100% | residual activity [24] 100% | residual activity [25] 61% | residual activity [26] 100% | residual activity [27] 90% | residual activity [28] 91% | residual activity [29] 100% | residual activity [30] 87% | residual activity [31] 86% | residual activity [32] 85% | residual activity [33] 100% | residual activity [34] 98% | residual activity [35] 100% | residual activity [36] 100% | residual activity [37] 100% | residual activity [38] 100% | residual activity [39] 100% | inhibition [40] -5.68% | residual activity [41] 100% | residual activity [42] 100% | residual activity [43] 91% | residual activity [44] 100% | residual activity [45] 90% | residual activity [46] 79%

Cc1cc(-n2nc(Cc3cc(F)cc(C(F)(F)F)c3)nc2C)ccc1C(N)=O [TP-024]
inactive: residual activity [1] 97% | residual activity [2] 98% | residual activity [3] 100% | residual activity [4] 100% | residual activity [5] 100% | inhibition [6] -7.57% | inhibition [7] 3.4% | residual activity [8] 100% | residual activity [9] 100% | inhibition [10] 16% | residual activity [11] 100% | residual activity [12] 95% | residual activity [13] 100% | inhibition [14] 14.3% | residual activity [15] 99% | residual activity [16] 100% | residual activity [17] 76% | residual activity [18] 94% | residual activity [19] 100% | inhibition [20] 6.9% | residual activity [21] 100% | residual activity [22] 100% | residual activity [23] 100% | residual activity [24] 100% | residual activity [25] 100% | residual activity [26] 100% | residual activity [27] 94% | residual activity [28] 100% | residual activity [29] 100% | residual activity [30] 97% | residual activity [31] 100% | residual activity [32] 71% | residual activity [33] 100% | residual activity [34] 100% | residual activity [35] 78% | residual activity [36] 94% | residual activity [37] 91% | residual activity [38] 100% | residual activity [39] 100% | inhibition [40] 3.15% | residual activity [41] 52% | residual activity [42] 100% | residual activity [43] 90% | residual activity [44] 100% | residual activity [45] 89% | residual activity [46] 100%

From ChEMBL document CHEMBL4507305, “Data for DCP probe TP-024” (2021)
